Measured values reported in ChEMBL document CHEMBL3045855, “ANTIPYRETIC, ANTINOCICEPTIVE AND ANTI-INFLAMMATORY ACTIVITIES OF CERTAIN -OXOBUTANOIC ACID DERIVATIVES” (2005).

Columns and labels:
Format in all cases: functional
Rattus norvegicus [1] = experiment: Anti-inflammatory in Rattus norvegicus Sprague-Dawley (rat) subcutaneously implanted with cotton pellets assessed as inhibition of granuloma growth at 25 mg/kg, po measured after 7 days; conditions: 168 h
Rattus norvegicus [2] = experiment: Anti-inflammatory activity in Rattus norvegicus Sprague-Dawley (rat) assessed as inhibition of carrageenan-induced paw edema at 25 mg/kg, po for 7 days challenged with carrageenan 1 hr post last dose on day 7 measured after 2 hr after challenge
Mus musculus [3] = experiment: Antinociceptive activity in Mus musculus Swiss (mouse) assessed as protection against acetic acid-induced writhing at 25 mg/kg, po administered 1 hr prior challenge measured for 20 min following acetic acid treatment relative to control
Rattus norvegicus [4] = experiment: Anti-inflammatory in Rattus norvegicus Sprague-Dawley (rat) subcutaneously implanted with cotton pellets assessed as inhibition of granuloma growth at 50 mg/kg, po measured after 7 days; conditions: 168 h
Rattus norvegicus [5] = experiment: Antipyretic activity in yeast-fevered Rattus norvegicus Sprague-Dawley (rat) assessed as reduction in rectal temperature at 50 mg/kg, po administered 17 hr post challenge measured after 30 min; parameters: scale not given: the % may be the effect or the level left
Rattus norvegicus [6] = experiment: Anti-inflammatory activity in Rattus norvegicus Sprague-Dawley (rat) assessed as inhibition of carrageenan-induced paw edema at 50 mg/kg, po for 7 days challenged with carrageenan 1 hr post last dose on day 7 measured after 2 hr after challenge
Rattus norvegicus [7] = experiment: Antipyretic activity in yeast-fevered Rattus norvegicus Sprague-Dawley (rat) assessed as reduction in rectal temperature at 50 mg/kg, po administered 17 hr post challenge measured after 120 min; parameters: scale not given: the % may be the effect or the level left
Mus musculus [8] = experiment: Antinociceptive activity in Mus musculus Swiss (mouse) assessed as protection against acetic acid-induced writhing at 50 mg/kg, po administered 1 hr prior challenge measured for 20 min following acetic acid treatment relative to control
Rattus norvegicus [9] = experiment: Antipyretic activity in yeast-fevered Rattus norvegicus Sprague-Dawley (rat) assessed as reduction in rectal temperature at 50 mg/kg, po administered 17 hr post challenge measured after 90 min; parameters: scale not given: the % may be the effect or the level left
Rattus norvegicus [10] = experiment: Antipyretic activity in yeast-fevered Rattus norvegicus Sprague-Dawley (rat) assessed as reduction in rectal temperature at 50 mg/kg, po administered 17 hr post challenge measured after 60 min; parameters: scale not given: the % may be the effect or the level left
Rattus norvegicus [11] = experiment: Anti-inflammatory activity in Rattus norvegicus Sprague-Dawley (rat) assessed as inhibition of carrageenan-induced paw edema at 100 mg/kg, po for 7 days challenged with carrageenan 1 hr post last dose on day 7 measured after 2 hr after challenge
Rattus norvegicus [12] = experiment: Antipyretic activity in yeast-fevered Rattus norvegicus Sprague-Dawley (rat) assessed as reduction in rectal temperature at 100 mg/kg, po administered 17 hr post challenge measured after 90 min; parameters: scale not given: the % may be the effect or the level left
Rattus norvegicus [13] = experiment: Antipyretic activity in yeast-fevered Rattus norvegicus Sprague-Dawley (rat) assessed as reduction in rectal temperature at 100 mg/kg, po administered 17 hr post challenge measured after 30 min; parameters: scale not given: the % may be the effect or the level left
Rattus norvegicus [14] = experiment: Antipyretic activity in yeast-fevered Rattus norvegicus Sprague-Dawley (rat) assessed as reduction in rectal temperature at 100 mg/kg, po administered 17 hr post challenge measured after 120 min; parameters: scale not given: the % may be the effect or the level left
Rattus norvegicus [15] = experiment: Antipyretic activity in yeast-fevered Rattus norvegicus Sprague-Dawley (rat) assessed as reduction in rectal temperature at 100 mg/kg, po administered 17 hr post challenge measured after 60 min; parameters: scale not given: the % may be the effect or the level left

Row | SMILES | inhibition in vivo at 25 mg/kg (Rattus norvegicus [1]) | inhibition in vivo at 25 mg/kg (Rattus norvegicus [2]) | Activity (Mus musculus [3]) | inhibition in vivo at 50 mg/kg (Rattus norvegicus [4]) | Activity (Rattus norvegicus [5]) | inhibition in vivo at 50 mg/kg (Rattus norvegicus [6]) | Activity (Rattus norvegicus [7]) | Activity (Mus musculus [8]) | Activity (Rattus norvegicus [9]) | Activity (Rattus norvegicus [10]) | inhibition in vivo at 100 mg/kg (Rattus norvegicus [11]) | Activity (Rattus norvegicus [12]) | Activity (Rattus norvegicus [13]) | Activity (Rattus norvegicus [14]) | Activity (Rattus norvegicus [15])
1 | O=C([O-])Cc1ccccc1Nc1c(Cl)cccc1Cl.[Na+] [DICLOFENAC SODIUM] | 45.4% | 47.6% | 72.58% |  |  |  |  |  |  |  |  |  |  |  | 
2 | NC(=O)c1cc(C(=O)CCC(=O)O)ccc1O |  |  |  | 34.4% | 0.86% | 13.6% | 2.44% | 59.24% | 2.71% | 2.11% | 27.5% |  |  |  | 
3 | CC(=O)c1cc(C(=O)CCC(=O)O)ccc1O |  |  |  | 5.2% | 1.58% | 4.11% | 2.52% | 61.47% | 2.63% | 1.8% | 22.4% |  |  |  | 
4 | CC(=O)Nc1ccc(O)cc1 [ACETAMINOPHEN] |  |  |  |  |  |  |  |  |  |  |  | 5.47% | 4.18% | 6.06% | 5.14%
5 | O=C(O)CCC(=O)/C=C/c1ccc2c(c1)OCO2 |  |  |  | 53.3% | 0.99% | 57.5% | 2.49% | 69.65% | 3.41% | 4.08% | 68.8% |  |  |  | 
